The numbers were not newly measured in the CATMoS acute toxicity set (Mansouri et al. 2021), which cites them from elsewhere.

A word on the LD50: it is the dose expected to kill half of the subjects tested.

“And” between values parts separate entries of the source, which are not always exact repeats. Equal values may be shown once.

The series is described as follows: rat acute oral toxicity. The conditions noted are these: in vivo.
On to `CCn1cc(C(=O)O)c(=O)c2cc3c(cc21)OCO3`, for which the 50% lethal dose (LD50) is 525 mg/kg.

As for `CC1C(=O)C[C@]2(C(C)C)C[C@H]12` (single isomer, unassigned; (-)), the LD50 is 192 mg/kg.

`CCC(C)c1cc([N+](=O)[O-])cc([N+](=O)[O-])c1OC(C)=O` (centres undefined): the median lethal dose (LD50) is 60 mg/kg. For `CCC(N)Cc1c[nH]c2ccccc12` (centres undefined), the median lethal dose (LD50) is 49 mg/kg. `C=CCCC=O`: the LD50 was 620 mg/kg. For the compound `CCOP(=O)(OCC)Oc1ccc(Cl)cc1Cl`, the LD50 is 100 mg/kg. For `CN(C)CCOc1ccnc(N)n1`, the LD50 was 1500 mg/kg. For `S=c1[nH]c(=S)[nH]c(=S)[nH]1`, the LD50 was 9500 mg/kg. Turning to `CC(C)NP(O)(=S)Oc1cc(Cl)c(Cl)cc1Cl` (centres undefined), the LD50 was 31 mg/kg. As for `COP(=S)(OC)Oc1ccc2c(C)cc(=O)oc2c1`, the 50% lethal dose (LD50) was 15.6 mg/kg.

In the case of `CN(C)CCN(Cc1ccccc1)c1ccccc1`, the LD50 is 300 mg/kg.

Turning to `O=C(OC1CCCCC1)C(Oc1ccc(Cl)cc1)Oc1ccc(Cl)cc1`, the LD50 is 900 mg/kg.

In the case of `O=S(=O)(O)C(F)(F)F`, the LD50 was 1610 mg/kg.

Take `CC(C)(C)NCCC(O)c1cc(C(F)(F)F)nc2c(C(F)(F)F)cccc12` (centres undefined): the LD50 was 2090 mg/kg. Consider `N#CCCNCCC#N`, for which the LD50 is 2700 mg/kg. As to `Nc1ccc(C=Cc2ccc([N+](=O)[O-])cc2S(=O)(=O)O)c(S(=O)(=O)O)c1`, the LD50 was 14200 mg/kg. For the compound `Oc1ccc(N=Cc2ccccc2)cc1`, the LD50 is 3500 mg/kg. In the case of `CCC(C)C1(CC)C(O)=NC(=O)N=C1O` (centres undefined), the median lethal dose (LD50) is 78 mg/kg. With `CCN(CC)P1(=S)OCc2cc([N+](=O)[O-])ccc2O1` (centres undefined), the LD50 is 150 mg/kg. Consider `COP(N)(=S)OC`, for which the LD50 was 410 mg/kg. In the case of `CC(C(=O)COC(=O)c1ccncc1)c1ccc(-c2ccccc2F)cc1` (centres undefined), the LD50 was 1170 mg/kg. As for `C=C(CCC)C1C(C=C(C)C)C1(C)C` (centres undefined), the 50% lethal dose (LD50) is 2600 mg/kg. For `O=C(C=Cc1ccccc1)NO`, the 50% lethal dose (LD50) was 2140 mg/kg. With `OC(CCl)CNCCNCC(O)CCl` (centres undefined), the median lethal dose (LD50) was 1000 mg/kg.

As to `Cn1cc(C(=O)[C@@H]2CCc3[nH]cnc3C2)c2ccccc21`, the LD50 was 1260 mg/kg. `CCOC(=O)CN=C=O`: the LD50 was 1130 mg/kg.

Regarding `CC(=O)C(NC(=O)C(C)C(O)C(C)NC(=O)C(NC(=O)c1nc(C(CC(N)=O)NCC(N)C(N)=O)nc(N)c1C)C(OC1OC(CO)C(O)C(O)C1(C)OC1OC(CO)C(O)C(O)(C(N)=O)C1O)c1cnc[nH]1)C(=O)NCCC1=NC(c2nc(C(N)=O)cs2)CS1` (centres undefined), the LD50 is 649 mg/kg. In the case of `CC(=O)Oc1ccc(C#N)cc1`, the median lethal dose (LD50) is 500 mg/kg.

Take `O=[N+]([O-])c1ccc(O)cc1`: the LD50 is 320 mg/kg.

In the case of `Oc1ccc(C(c2ccc(O)cc2)(C(F)(F)F)C(F)(F)F)cc1`, the median lethal dose (LD50) was 3400 mg/kg.

On to `C=C[Si](Cl)(Cl)CC`, for which the LD50 was 2830 mg/kg. Regarding `Cc1c(C(C)C)c(=O)n(-c2ccccc2)n1C`, the median lethal dose (LD50) is 860 mg/kg. In the case of `CCCCCCCC/C=C\CCCCCCCC(=O)NCCS(=O)(=O)O`, the LD50 is 4000 mg/kg.

With `CC(=O)O`, the LD50 is 3250 mg/kg.

As to `C[C@@H]1CC=CC=CC=CC=C[C@H](O[C@@H]2O[C@H](C)[C@@H](O)[C@H](N)[C@@H]2O)C[C@@H]2O[C@](O)(C[C@@H](O)C[C@H]3O[C@@H]3C=CC(=O)O1)C[C@H](O)[C@H]2C(=O)O`, the LD50 is 2730 mg/kg.

`COC(=O)[C@H]1[C@H]2C[C@@H]3c4[nH]c5cc(OC)ccc5c4CCN3C[C@H]2C[C@@H](OC(=O)c2cc(OC)c(OC)c(OC)c2)[C@@H]1OC`: the median lethal dose (LD50) is 420 mg/kg. Take `CS(=O)C(C)(C)CO` (centres undefined): the LD50 is 11300 mg/kg. With `CCCCCCCN1C(C)=CSC1=Cc1scc(C)[n+]1CCCCCCC`, the LD50 was 460 mg/kg. As to `CCOP(=O)(OCC)Oc1ccc([N+](=O)[O-])c(Cl)c1`, the 50% lethal dose (LD50) was 5 mg/kg. Turning to `CN(C)S(=O)(=O)CCNC(=O)N(CCCl)N=O`, the LD50 was 39 mg/kg. For `O=c1[nH]nc(-c2ccccc2)c2conc12`, the LD50 is 1000 mg/kg. Turning to `C[Se]C`, the LD50 is 2100 mg/kg. As to `OCC1CCc2cc(C3CCCCC3)ccc21` (centres undefined), the LD50 was 295 mg/kg and 165 mg/kg. As for `COc1ccc2nc3c(c(N)c2c1)CCCC3`, the LD50 is 753 mg/kg.

Consider `CCC1(CCC(C)C)C(=O)NC(=O)NC1=O`, for which the median lethal dose (LD50) is 250 mg/kg. For `CCN1CN1CC` (centres undefined), the median lethal dose (LD50) is 4000 mg/kg. As for `CNC(=O)O/N=C(\C)C(C)S(C)(=O)=O` (centres undefined), the LD50 is 458 mg/kg. `Cc1n[nH]c(=O)c2noc(C)c12`: the LD50 is 1000 mg/kg. As for `COc1cc(C(=O)OC2CCC(N3CCCCC3)CC2)cc(OC)c1OC` (centres undefined), the LD50 is 650 mg/kg. As to `O=C1N=C2c3ccccc3N=CN2C1=Cc1ccc([N+](=O)[O-])cc1`, the median lethal dose (LD50) is 1290 mg/kg. For the compound `Cc1nc2ccccc2c(=O)n1-c1ccc(Br)cc1`, the LD50 was 185 mg/kg. For the compound `NC(=O)C1c2ccccc2CCc2ccccc21`, the median lethal dose (LD50) was 2400 mg/kg. Turning to `Cc1cc(N=Nc2ccc(S(=O)(=O)O)cc2)c(N)c(N=Nc2ccc(-c3ccc(N=Nc4cc(C)c(O)c(C(=O)O)c4)cc3)cc2)c1N`, the LD50 was 9960 mg/kg. For the compound `COP(=S)(OC)SSP(=S)(OC)OC`, the LD50 was 10000 mg/kg. On to `CN(CCO)c1nc(Nc2ccccc2)nc(Nc2ccc(/C=C/c3ccc(Nc4nc(Nc5ccccc5)nc(N(C)CCO)n4)cc3S(=O)(=O)O)c(S(=O)(=O)O)c2)n1`, for which the LD50 was 6890 mg/kg. As for `O=C(CN1CC1)NCCCCCCCCNC(=O)CN1CC1`, the LD50 was 225 mg/kg. Turning to `CC[N+](CC)(CCNC(=O)C(=O)NCC[N+](CC)(CC)Cc1ccccc1Cl)Cc1ccccc1Cl`, the LD50 was 18.5 mg/kg. Take `CCCCCCc1ccccc1O`: the 50% lethal dose (LD50) was 1300 mg/kg. Consider `Cc1ccc2[nH]c(C(F)(F)F)nc2c1[N+](=O)[O-]`, for which the median lethal dose (LD50) is 7.75 mg/kg.
